{"source": "patent US12070464B2", "about": "“Methods of treating myeloproliferative disorders” (priority 2019, dated 2024)", "key": {"[1]": {"tested_on": "IL6 release from the THP-1 acute leukemia cells", "assay": "IL6 release from LPS-treated THP-1 cells", "assay_type": "cell-based", "settings": "Homo sapiens, lipopolysaccharide treatment, then Compound 1 for 16 hours", "description": "Compound 1 was assessed for its ability to suppress the expression of NF-κB target genes in two experiments. In one experiment, THP-1 acute leukemia cell lines were exposed to lipopolysaccharide treatment and then Compound 1 for 16 hours. […] In the other experiment, the ability of Compound 1 to suppress both IL6 and ILIO expression in TMD8 ABC-DLBCL cells was investigated (data on file). TMD8 cells were incubated with DMSO or 1.6 μM Compound 1 for 6 or 24 hours. RNA was then extracted from the cells and quantified using qRT-PCR."}, "[2]": {"tested_on": "patients with refractory or intolerant myelofibrosis no longer on Rux", "assay": "Phase 2 study, Arm 1 (Compound 1 monotherapy)", "assay_type": "in vivo, human", "settings": "for average spleen volume reduction: 24 weeks, FIG. 13A", "description": "(§1) A Phase 2 study of Compound 1 in subjects with myelofibrosis (MF) was conducted. Three treatment arms were studied: Arm 1=monotherapy with Compound 1 in patients (pts) who are no longer on Rux and are with refractory, intolerant, or ineligible. In this arm patients were further stratified based on transfusion dependence status [transfusion dependent (TD), defined as an average of >2 units per month over 12 wks, or non-TD cohorts]. Primary endpoint: spleen volume response (SVR) for non-TD cohorts or TD to transfusion independence (TI, no transfusion for consecutive 12 wks) conversion for TD cohorts; secondary endpoints: change in total symptom score (TSS) per […]4.0, patient global impression of change (PGIC), safety and PK; additional endpoints: changes in proinflammatory Ck levels, BM morphology and mutant allele burden. The starting dose of Compound 1 was 125 mg given orally, once daily for 2 weeks on/1 week off in a 21-day dosing cycle. Two separate time points for data analysis occurred for at least Arms 1 and 2 and are discussed below: one at approximately 12 weeks of treatment (first assessment of spleen volume by MRI or CT and every 12 weeks thereafter) and another at approximately 24 weeks of treatment (first assessment of bone marrow biopsy and every 24 weeks thereafter). Patients were added to the study following the first time point. Patients were added to the study following the first data cut and treatment was continued for approximately 25.9 weeks (median, range: 0.4, 116.6)."}, "[3]": {"tested_on": "patients with refractory or intolerant myelofibrosis already being administered Rux", "assay": "Phase 2 study, Arm 2 (Compound 1 add-on to ruxolitinib)", "assay_type": "in vivo, human", "description": "as §1, with “2=combination add-on treatment of” for “1=monotherapy with”, “already being administered Rux.” for “no longer on Rux and are with refractory, intolerant, or ineligible.”, “cohorts]. The starting dose of Compound 1 was 125 mg daily on days 1-14 of a 21-day cycle in both arms.” for “cohorts].”"}, "[4]": {"settings": "Time Point 1, Compound 1 with ruxolitinib"}}, "data": [{"smiles": "Cc1noc2c1-c1ccccc1C(c1ccc(Cl)cc1)=N[C@H]2CC(N)=O", "note": "[Compound 1, 2-((4S)-6-(4-chlorophenyl)-1-methyl-4H-benzo[c]isoxazolo[4,5-e]azepin-4-yl)acetamide]", "values": [{"measurement": "IC50", "setting": "[1]", "result": 69, "unit": "nM"}, {"measurement": "patients with increase in hemoglobin by 1.5 mg/dL post-baseline", "setting": "[2]; Time Point 1, monotherapy, 4 of 8", "result": 50, "unit": "%"}, {"measurement": "average spleen volume reduction", "setting": "[2]; Time Point 2, TD patients (Cohort 1A)", "result": "about −3.2%"}, {"measurement": "average spleen volume reduction", "setting": "[2]; Time Point 2, non-TD patients (Cohort 1B)", "result": "about −26%"}, {"measurement": "patients with improved PGIC", "setting": "[2]; Time Point 2, TD patients", "result": "about 50%"}, {"measurement": "patients with improvement in bone marrow fibrosis", "setting": "[2]; Time Point 2, TD patients", "result": "about 25%"}, {"measurement": "patients with improved PGIC", "setting": "[2]; Time Point 2, non-TD patients", "result": 100, "unit": "%"}, {"measurement": "patients with improvement in disease symptoms per TSS", "setting": "[2]; Time Point 2, non-TD patients", "result": "About 60%"}, {"measurement": "TD patients converted to TI", "setting": "[3]; [4]", "result": 4, "unit": "patients"}, {"measurement": "duration of TI in 2 of the converted patients", "setting": "[3]; [4]", "result": "> 36", "unit": "wks"}, {"measurement": "patients with increase in hemoglobin by 1.5 mg/dL post-baseline", "setting": "[3]; Time Point 1, Compound 1 with ruxolitinib, 4 of 25", "result": 16, "unit": "%"}, {"measurement": "average spleen volume reduction", "setting": "[3]; Time Point 2, 24 weeks, non-transfusion dependent at start, FIG. 12A", "result": "about −10.9%"}, {"measurement": "average spleen volume reduction", "setting": "[3]; Time Point 2, 24 weeks, transfusion dependent at start", "result": "about −24.9%"}, {"measurement": "patients converted from transfusion dependent to transfusion independent", "setting": "[3]; Time Point 2, 24 weeks, transfusion dependent at start, FIG. 10A", "result": "about 35%"}, {"measurement": "average time of conversion from TD to TI", "setting": "[3]; Time Point 2, Arm 2", "result": "about 14 weeks"}, {"measurement": "average transfusion free time post-conversion", "setting": "[3]; Time Point 2, Arm 2", "result": "about 14 weeks"}, {"measurement": "maximum transfusion free time post-conversion", "setting": "[3]; Time Point 2, Arm 2", "result": 85, "unit": "weeks"}, {"measurement": "patients with greater than or equal to a 50% reduction in transfusion intensity", "setting": "[3]; Time Point 2, Arm 2", "result": "About 41%"}, {"measurement": "patients with improvement in bone marrow fibrosis", "setting": "[3]; Time Point 2, non-transfusion dependent at start", "result": "about 25%"}, {"measurement": "patients with improvement in disease symptoms per TSS", "setting": "[3]; Time Point 2, non-transfusion dependent at start, FIG. 12B", "result": "About 38%"}, {"measurement": "patients with improved PGIC", "setting": "[3]; Time Point 2, non-transfusion dependent at start, FIG. 12C", "result": "about 69%"}, {"measurement": "patients with improvement in disease symptoms per TSS", "setting": "[3]; Time Point 2, transfusion dependent at start, FIG. 10B", "result": "About 76.5%"}, {"measurement": "patients with improved PGIC", "setting": "[3]; Time Point 2, transfusion dependent at start, FIG. 10C", "result": "about 75%"}]}]}
